Patent US20210321612A1, “USE OF QUERCETIN IN PLANT AGING PROMOTER” (TOBACCO RESEARCH INSTITUTE OF CHINESE ACADEMY OF …, priority 2019, published 2021)

How the values were obtained:
Format in all cases: in vivo
[1] = test system: living plants of Arabidopsis thaliana; assay: Spraying the quercetin plant senescence accelerator onto living plants of Arabidopsis thaliana; settings: attached leaves sprayed at 10 and 20 μmol/L; FIG. 3B
Source text: Experimental test 3: Effects of spraying the quercetin plant senescence accelerator onto living plants of Arabidopsis thaliana Living plants of Arabidopsis thaliana were sprayed with the quercetin plant senescence accelerator finished products prepared by the preparation method provided in one of Embodiments 1-3 of the present application, and the accelerating effect of the accelerator on the senescence of plant leaves was observed. The specific results were shown in FIGS. 3A-3C, and the experimental groups and their results were described below. Experimental group: living plants of Arabidopsis thaliana were sprayed with the quercetin plant senescence accelerators with concentrations of 10 μmol/L and 20 μmol/L in Embodiment 2, respectively. Control group: living plants Arabidopsis thaliana were sprayed with the 1/2 MS solution of 2-(N-morpholino)ethanesulfonic acid in which the concentration of 2-(N-morpholino)ethanesulfonic acid was 3 mmol/L.

[2] = test system: living plants of Nicotiana benthamiana; assay: Spraying the quercetin plant senescence accelerator onto attached leaves of Nicotiana benthamiana; settings: attached leaves sprayed at 1, 10 and 20 μmol/L; FIG. 4B
Source text: Experimental test 4: Effects of spraying the quercetin plant senescence accelerator onto attached leaves of Nicotiana benthamiana Living plants of Nicotiana benthamiana were sprayed with the quercetin plant senescence accelerator finished product in Embodiment 3, and the accelerating effect of the accelerator on the senescence of plant leaves was observed. The specific results were shown in FIGS. 4A-4C, and the experimental groups and their results were described below. Experimental group: living plants of Nicotiana benthamiana were sprayed with the quercetin plant senescence accelerators having concentrations of 1 μmol/L, 10 μmol/L and 20 μmol/L, respectively. Control group: living plants of Nicotiana benthamiana were sprayed with the 1/2 MS solution of 2-(N-morpholino)ethanesulfonic acid in which the concentration of 2-(N-morpholino)ethanesulfonic acid was 2.9 mmol/L.

Honghuadajinyuan tobacco = assay: Spraying the quercetin plant senescence accelerator onto common tobacco in fields; settings: 10 μmol/L; attached leaves of tobacco; FIG. 5B
Source text: Experimental test 5: Effects of spraying the quercetin plant senescence accelerator onto common tobacco in fields It could be found from the experimental test 4 that 10 μmol/L was the optimal concentration of the quercetin plant senescence accelerator to accelerate mature and yellowing of tobacco leaves. Further, Honghuadajinyuan tobacco was sprayed with the quercetin plant senescence accelerator finished product, and the accelerating effect of the accelerator on the senescence of plant leaves was observed. The specific results were shown in FIGS. 5A-5D, and the experimental groups and their results were described below. The quercetin plant senescence accelerator having a concentration of 0 (the control group) and the quercetin plant senescence accelerator having a concentration of 10 μmol/L were sprayed onto living plants of common tobacco.

Measured: content of chlorophyll in leaves

O=c1c(O)c(-c2ccc(O)c(O)c2)oc2cc(O)cc(O)c12 [quercetin]
significantly reduced: all assays above
